The subject of assay [1] is LRAT and ARAT catalyzed retinol esterification. The assay is described as follows: in vitro Microsomal Assay, retinol esterification overall (statements in words). The format is biochemical, bovine.
Method: (§1) A solution containing 0.1 M sodium phosphate pH 7 buffer, 5 mM dithiothreitol, 2 mg/ml bovine serum albumin, 40 micromolar palmitoyl CoA, 40 micromolar dilauroyl phosphatidyl choline, 10 micromolar retinol and a test compound or solvent blank, was incubated for 1 hour at 37° C. with a microsomal fraction isolated from bovine retinal pigment epithelial cells. After incubation, the reaction was quenched by addition of an equal volume of ethanol, and the retinyl esters formed (retinyl palmitate from the ARAT catalyzed reaction, and retinyl laurate from the LRAT catalyzed reaction) were extracted with hexane.
In assay [2] the target is T1, lecithin retinol acyl transferase (LRAT) (Bos taurus, UniProt Q9BGL2).
T1 sequence (Q9BGL2 1-230): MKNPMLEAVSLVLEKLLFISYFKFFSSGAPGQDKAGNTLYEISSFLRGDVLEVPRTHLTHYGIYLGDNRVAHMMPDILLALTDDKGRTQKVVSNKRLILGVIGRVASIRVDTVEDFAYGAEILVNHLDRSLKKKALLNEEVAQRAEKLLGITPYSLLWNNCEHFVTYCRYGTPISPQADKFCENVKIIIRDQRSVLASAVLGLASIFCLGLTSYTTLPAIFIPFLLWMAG
The assay is described as follows: in vitro Microsomal Assay of retinol esterification, LRAT catalyzed (retinyl laurate). The format is biochemical, bovine. As to conditions: solvent blank = 100% ester formation.
Method: as §1

The subject of assay [3] is acyl CoA retinol transferase (ARAT). The assay is described as follows: in vitro Microsomal Assay of retinol esterification, ARAT catalyzed (retinyl palmitate). The format is biochemical, bovine. Conditions: solvent blank = 100% ester formation.
Method: as §1
Assay [4] deals with decorin synthesis in human dermal fibroblasts. The assay is described as follows: Dot blot assay for decorin in dermal fibroblast conditioned medium. The format is cell-based.
Method: (§2) Primary human foreskin fibroblasts at passage 2 (P2) were seeded into 12-well plates at 10000 cells/cm^2 and maintained for 24 hours in an atmosphere of 5% carbon dioxide and 4% oxygen in Dulbeccos Modified Eagles Medium (DMEM) supplemented with 10% foetal calf serum. After this time the cells were washed with serum free DMEM and then incubated in fresh serum free DMEM for a further 60 hours. The fibroblast monolayers were then washed again with serum free DMEM. Test reagents and vehicle controls were added to the cells in triplicate in a final volume of 0.4 ml/well fresh serum free DMEM and incubated for a further 24 hours. This fibroblast conditioned medium was either analysed immediately or snap frozen in liquid nitrogen and stored at −70° C. for future analysis. The cells were then counted and data from the dot-blot analysis subsequently standardised to cell number.
(§3) Samples of conditioned medium from dermal fibroblasts treated with vehicle (as a control) or test reagents were supplemented with 20 mM dithiothreitol (1:10 dilution of 200 mM stock solution) and 0.1% sodium dodecylsulphate (1:100 dilution of 10% stock solution), mixed well and then incubated at 75° C. for 2 minutes. A standard for the assay was generated by serial dilution of neat fibroblast conditioned medium from fibroblasts seeded at 10000 cells/cm^2 in a 175 cm^2 flask and maintained in serum free DMEM as described above.
Assay samples were subsequently applied in triplicate to a prewetted sheet of Immobilon-P transfer membrane using the 96-well Bio-Dot Apparatus from Bio-Rad as described in the manufacturers guidelines. Approximately 200 μl of medium was applied per well. The medium was allowed to filter through the membrane under gravity (30 minutes) after which the membrane was washed twice with PBS (200 μl). These PBS washes were allowed to filter through the membrane under gravity (2×15 minutes). The Bio-Dot apparatus was then attached to a vacuum manifold and a third and final PBS wash carried out under suction. The apparatus was disassembled, the membrane removed and quickly cut as required before being placed in blocking buffer overnight at 4° C. Membranes prepared for decorin analysis were blocked with 3% (w/v) BSA/0.1% (v/v) Tween 20 in PBS, whilst those for procollagen-I analysis were blocked with 5% (w/v) non fat dried milk powder/0.05% Tween 20 in PBS.
Following this the Immobilon strips were again washed with TBS/Tween 20 (3×5 minutes) before being allowed to dry in air at room temperature. The dried membranes were wrapped in cellophane and exposed to a Molecular Dynamics storage phosphor screen for 16-18 hours. At the end of this time the exposed screen was scanned by a phosphorimager (Molecular Dynamics Phosphorimager SF) using ImageQuant™ software. Dot intensity was assessed by computer-assisted image analysis using the quantification tools in ImageQuant™, standardised to cell number and the effects of various test reagents on decorin and procollagen-I synthesis were determined relative to a vehicle treated control value of 100 arbitrary units.
For assay [5], the system named is procollagen-I synthesis in human dermal fibroblasts. The assay can be described thus: Dot blot assay for procollagen-I in dermal fibroblast conditioned medium. As to conditions: 0.01 μM of each active; for Procollagen 1: Table 7, PA/Retinol set, control = 100%. The format is cell-based.
Method: as §2, §3
Assay samples were subsequently applied in triplicate to a prewetted sheet of Immobilon-P transfer membrane using the 96-well Bio-Dot Apparatus from Bio-Rad as described in the manufacturers guidelines. […]
Following this the Immobilon strips were again washed with TBS/Tween 20 (3×5 minutes) before being allowed to dry in air at room temperature. […] Dot intensity was assessed by computer-assisted image analysis using the quantification tools in ImageQuant™, standardised to cell number and the effects of various test reagents on decorin and procollagen-I synthesis were determined relative to a vehicle treated control value of 100 arbitrary units.
Where [6] appears, read: Table 7, PA/trans Retinoic acid set, 0.01 μM of each active, control = 100%.

Read-outs that look alike come from different tables or passages of the source.

Consider `CCCCCCCCCCCCC/C=C/[C@@H](O)[C@H](CO)NC(C)=O` [Acetyl Sphingosine], for which the “retinol esterification inhibition (in words)” value in assay [1] is recorded as “potent retinol esterification inhibitors”. Moreover, the “% INHIBITION, LRAT” value in assay [2] (10 μM test compound) stood at 10%; in assay [2] (100 μM test compound), 50%. Also, the “% INHIBITION, ARAT” value in assay [3] (10 μM test compound) is on record as 19%; in assay [3] (100 μM test compound) it was 62%.
With `CCC(=O)/C=C/C1C(C)=CCCC1(C)C` (stereo not drawn) [Alpha methyl ionone], the “% INHIBITION, LRAT” value in assay [2] (100 μM test compound) was determined as 77%. Also, the “% INHIBITION, ARAT” value in assay [3] (100 μM test compound) is reported as 67%.
With `C/C=C/C(=O)C1=C(C)CCCC1(C)C` [Beta damascone], the “% INHIBITION, LRAT” value is on record as 52% in assay [2] (10 μM test compound) and 92% in assay [2] (100 μM test compound).
`CC1=CCC(CCC(C)CO)C1(C)C` (stereo not shown) [Brahmanol]: the “% INHIBITION, LRAT” value in assay [2] (100 μM test compound) is reported as 75%. The “% INHIBITION, ARAT” value in assay [3] (100 μM test compound) was determined as 70%.
As for `C/C=C/C(=O)C1=C(C)C=CCC1(C)C` [Damascenone], the figures for the “% INHIBITION, LRAT” value in assay [2] (10 μM test compound) and in assay [2] (100 μM test compound) were 29% and 79%, respectively.
For `C/C=C/C(=O)C1C(C)C=CCC1(C)C` (stereo not shown) [Delta damascone], in that order: 64% and 95%.
Regarding `CCOC(=O)C1=C(C)C=CCC1(C)C` [Ethyl saffranate], the “% INHIBITION, LRAT” value in assay [2] (100 μM test compound) is 49%.
With `CC(C)=CCCC(C)=CCCC(C)=CCO` [Farnesol], in assay [1], the “retinol esterification inhibition (in words)” value was “inhibit retinol esterification”. The “% INHIBITION, ARAT” value in assay [3] (10 μM test compound) worked out at 20%; in assay [3] (100 μM test compound), 43%.
Consider `CC(=O)/C(C)=C/C1C(C)=CCCC1(C)C` (stereo not shown) [Gamma methyl ionone], for which the “% INHIBITION, LRAT” value in assay [2] (100 μM test compound) came to 38%.
Take `CC(C)=CCC/C(C)=C/CC/C(C)=C/CC/C(C)=C/CO` [Geranyl Geraniol]: the “retinol esterification inhibition (in words)” value is given as “substantially more potent esterification inhibitor, than farnesol” in assay [1] (listed as Geranyl geraniol) and “inhibit retinol esterification” in assay [1] (listed as geranyl geraniol). Besides, the entries for the “% INHIBITION, ARAT” value in assay [3] (10 μM test compound) and in assay [3] (100 μM test compound) were 38% and 81%, respectively.
For `CC=CC(=O)C1CCC(C)(C)C=C1C` (stereo not shown) [Isodamascone], the “% INHIBITION, LRAT” value in assay [2] (100 μM test compound) is on record as 92%. In assay [3] (100 μM test compound), the “% INHIBITION, ARAT” value was 80%.
As for `CCCCC/C=C\C/C=C\CCCCCCCC(=O)N(CCO)CCO` [Linoleamide-DEA (LODEA), Linoleamide-DEA], the “retinol esterification inhibition (in words)” value in assay [1] is listed as “potent retinol esterification inhibitors”. Moreover, the “% INHIBITION, LRAT” value in assay [2] (10 μM test compound) is 11%; in assay [2] (100 μM test compound), 51%.
`CCCCC/C=C\C/C=C\CCCCCCCC(=O)NCCO` [Linoleamide-MEA (LOMEA), Linoleamide-MEA]: the “retinol esterification inhibition (in words)” value in assay [1] was “potent retinol esterification inhibitors”. The compound also came in with a Decorin in assay [4] (Table 6, 0.1 μg/ml, 24 hours, vehicle control = 100) of 133.9%.
On to `CC(C)(O)CCCC1=CCC(C=O)CC1` (stereo not shown) [Lyral], for which, in assay [3] (100 μM test compound), the “% INHIBITION, ARAT” value came to 76%.
`CCCCCCCCCCC/C=C\CCCCC(=O)O` [PA, Petroselinic acid] registered a Procollagen-I in assay [5] (Table 6, 24 hours, vehicle control = 100) of 85.1%. For the same compound, the “Procollagen 1” value in assay [5] is 86.0%. The Decorin stood at 101.8% in assay [4] (Table 6, 0.01 μM, 24 hours, vehicle control = 100); 107.5% in assay [4] (Table 7, PA/Retinyl Linoleate set, 0.01 μM, control = 100%); 100.5% in assay [4] (setting [6]).
For `CC1=C(/C=C/C(C)=C/C=C/C(C)=C/CO)C(C)(C)CCC1` [Retinol, reference compound], in assay [5], the “Procollagen 1” value was determined as 95.0%.
The compound `CCCCC/C=C\C/C=C\CCCCCCCC(=O)OC/C=C(C)/C=C/C=C(C)/C=C/C1=C(C)CCCC1(C)C` [Retinyl Linoleate] displayed a Decorin in assay [4] (Table 7, PA/Retinyl Linoleate set, 0.1 μM, control = 100%) of 109.1%.
On to `CCCC(O)CCC1C(C)CCCC1(C)C` (stereo not shown) [Timberol], for which, in assay [2] (100 μM test compound), the “% INHIBITION, LRAT” value is recorded as 33%.
For `CC(=O)c1cc2c(cc1C)C(C)(C)C(C)CC2(C)C` (stereo not shown) [Tonalid], the “% INHIBITION, ARAT” value in assay [3] (100 μM test compound) was found to be 50%.
On the same count and under the same terms, with `Nc1ncnc2nc[nH]c12` [adenine, reference compound] the figure was 0%.
Same read-out and setting: with `CC12CCC(CC1=O)C2(C)C` (stereo not shown) [camphor, reference compound] the figure was 0%.
The same measure, in the same setting: with `C=C(C)C1CC=C(C)C(=O)C1` (stereo not shown) [carvone, reference compound] the figure was 0%; with `O=CC=Cc1ccccc1` [cinnamaldehyde, reference compound], 0%.
Consider `O=C(NCO)N(CO)C1(CO)C(=O)NC(=O)N1CO` (stereo not shown) [diazolidinyl urea, reference compound], for which, in assay [3] (100 μM test compound), the “% INHIBITION, ARAT” value is on record as 0%.
Turning to `CC(=O)CCC1C(C)=CCCC1(C)C` (stereo not drawn) [dihydro alpha ionone, reference compound], the “% INHIBITION, LRAT” value in assay [2] (100 μM test compound) was 18%. Further, in assay [3] (100 μM test compound), the “% INHIBITION, ARAT” value was 13%.
`CC12CCC(CC1)C(C)(C)O2` [eucalyptol, reference compound]: in assay [3] (100 μM test compound), the “% INHIBITION, ARAT” value was 0%.
On the same count and under the same terms, the same measure for `CC12CCC(C1)C(C)(C)C2O` (stereo not shown) [fenchyl alcohol, reference compound]: 12%.
Regarding `CC1=CC(C)C(CO)C(C)C1` (stereo not shown) [isocyclogeraniol, reference compound], in assay [2] (100 μM test compound), the “% INHIBITION, LRAT” value is 16%. In addition, the “% INHIBITION, ARAT” value in assay [3] (100 μM test compound) came out at 18%.
On to `Cc1ncc(C[n+]2csc(CCO)c2C)c(N)n1` [thiamine, reference compound], for which the “% INHIBITION, ARAT” value in assay [3] (100 μM test compound) stood at 0%.
Take `Cc1ccc(C(C)C)c(O)c1` [thymol, reference compound]: the “% INHIBITION, ARAT” value in assay [3] (100 μM test compound) amounted to 0%.
The compound `CC1=C(/C=C/C(C)=C/C=C/C(C)=C/C(=O)O)C(C)(C)CCC1` [trans Retinoic acid, reference compound] had a Decorin in assay [4] (setting [6]) of 102.8%.
For the compound `N[C@@H](Cc1c[nH]c2ccccc12)C(=O)O` [tryptophan, reference compound], the “% INHIBITION, ARAT” value in assay [3] (100 μM test compound) is reported as 0%.
Still for that read-out and setting: with `O=c1cc[nH]c(=O)[nH]1` [uracil, reference compound] the figure was 0%; with `COc1cc(C=O)ccc1O` [vanillin, reference compound], 0%.
For the compound Isobutyl ionone, the “% INHIBITION, LRAT” value in assay [2] (100 μM test compound) is given as 45%. Further, the “% INHIBITION, ARAT” value in assay [3] (100 μM test compound) amounted to 8%.
The corresponding values for Sandalone are 12% and 23%.
As for Sandanol, in assay [2] (100 μM test compound), the “% INHIBITION, LRAT” value was 43%. The “% INHIBITION, ARAT” value in assay [3] (100 μM test compound) is listed as 15%.

These data come from US6440434B1, “Skin care composition” (Conopco, Inc., priority 1999, dated 2002).
